In ChEMBL document CHEMBL4400559, “Exploiting the furo[2,3-b]pyridine core against multidrug-resistant Mycobacterium tuberculosis” (Bioorg Med Chem Lett, 2019):
Converted amounts (≈) assume the structure as drawn.

What was measured:
[1] = test system: Mycobacterium tuberculosis; experiment: Antibacterial activity against Mycobacterium tuberculosis H37Rv ATCC 27294 after 7 days by resazurin microtiter assay; type: functional; settings: H37Rv ATCC 27294, 168 h
[2] = test system: MRC5; experiment: Cytotoxicity against human MRC5 cells after 24 hrs by resazurin dye-based fluorescence assay; type: cell-based; settings: MRC5, 24 h
[3] = test system: J774.A1; experiment: Cytotoxicity against mouse J774A.1 cells after 24 hrs by resazurin dye-based fluorescence assay; type: cell-based; settings: J774.A1, 24 h
[4] = Selectivity index, ratio of IC50 for mouse J774A.1 cells to MIC90 for Mycobacterium tuberculosis H37Rv ATCC 27294; type: toxicity; settings: read-out: Selectivity Index
[5] = Selectivity index, ratio of IC50 for human MRC5 cells to MIC90 for Mycobacterium tuberculosis H37Rv ATCC 27294; type: toxicity; settings: read-out: Selectivity Index

Row | SMILES | MIC90 [1] | IC50 [2] | IC50 [3] | selectivity ratio [4] | selectivity ratio [5]
1 | CCCCNc1cnc2oc(C(C)C)c(C(=O)OCC)c2c1 | > 82.1 µM |  |  |  | 
2 | CCCSc1cnc2oc(C(C)C)c(C(=O)OCC)c2c1 | > 81.3 µM |  |  |  | 
3 | CCOC(=O)c1c(C)oc2nc(N3CCN(c4ccccc4)CC3)ccc12 | > 68.5 µM |  |  |  | 
4 | CCOC(=O)c1c(C(C)C)oc2nc(N3CCN(c4ccc(Cl)cc4)CC3)ccc12 | > 58.5 µM |  |  |  | 
5 | NNC(=O)c1ccncc1 [ISONIAZID] | 0.8 µM (≈ 0.11 µg/mL) |  |  |  | 
6 | CNC(=O)c1c(-c2ccc(O)cc2)oc2ccc(O)c(CN3CCCCC3)c12 | 0.09 µM (≈ 0.0342 µg/mL) |  |  |  | 
7 | CC(C)c1oc2nc(N3CCCC3)ccc2c1C(=O)O | > 91.1 µM |  |  |  | 
8 | CNC(=O)c1c(C(C)C)oc2nc(N3CCCC3)ccc12 | > 87 µM |  |  |  | 
9 | Cc1oc2nc(N3CCCC3)ccc2c1C(=O)O | > 102 µM |  |  |  | 
10 | N[C@@H]1CONC1=O [CYCLOSERINE] | 37.1 µM (≈ 3.79 µg/mL) |  |  |  | 
11 | CO[C@H]1/C=C/O[C@@]2(C)Oc3c(C)c(O)c4c(O)c(c(/C=N/N5CCN(C)CC5)c(O)c4c3C2=O)NC(=O)/C(C)=C\C=C\[C@H](C)[C@H](O)[C@@H](C)[C@@H](O)[C@@H](C)[C@H](OC(C)=O)[C@@H]1C [RIFAMPIN] | 0.06 µM (≈ 0.0494 µg/mL) |  |  |  | 
12 | CCOC(=O)c1c(C)oc2nc(N3CC[C@@H](F)C3)ccc12 | > 85.6 µM | > 342 µM |  |  | 
13 | CCOC(=O)c1c(C)oc2nccc(N3CCN(c4ccccc4)CC3)c12 | > 68.5 µM |  | 120 µM |  | 
14 | CCOC(=O)c1c(C(C)C)oc2nc(N3CCN(c4ccccc4)CC3)ccc12 | > 63.6 µM |  |  |  | 
15 | CNC(=O)c1c(C)oc2nc(N3CCCC3)ccc12 | > 96.4 µM |  |  |  | 
16 | CC[C@@H](CO)NCCN[C@@H](CC)CO [ETHAMBUTOL] | 7 µM (≈ 1.43 µg/mL) |  |  |  | 

Row | SMILES | MIC90 [1] | IC50 [2] | IC50 [3] | selectivity ratio [4] | selectivity ratio [5]
17 | CCOC(=O)c1c(C)oc2nccc(N3CCOCC3)c12 | > 86.1 µM |  | > 314 µM |  | 
18 | CCOC(=O)c1c(C(C)C)oc2nccc(N3CCN(c4ccc(Cl)cc4)CC3)c12 | > 58.5 µM |  | > 234 µM |  | 
19 | CCOC(=O)c1c(C)oc2nc(N3CCCC3)ccc12 | 10.5 µM (≈ 2.88 µg/mL) | > 364 µM | 196 µM | 18.7 | > 34.7
20 | CCOC(=O)c1c(C)oc2nc(N3CCOCC3)ccc12 | > 86.1 µM |  |  |  | 
21 | CCOC(=O)c1c(C(C)C)oc2nc(N3CCCC3)ccc12 | 32.8 µM (≈ 9.92 µg/mL) | > 331 µM | > 331 µM | > 10.1 | > 10.1
22 | CCCCNc1ccc2c(C(=O)OCC)c(C(C)C)oc2n1 | 23.2 µM (≈ 7.06 µg/mL) | > 328 µM | > 328 µM | > 14.2 | > 14.2
23 | CCOC(=O)c1c(C)oc2ncc(N3CCCC3)cc12 | 82.3 µM (≈ 22.6 µg/mL) | > 364 µM | 260 µM | 3.2 | > 4.4
24 | CCOC(=O)c1c(C)oc2ncc(N3CC[C@@H](F)C3)cc12 | > 85.6 µM | > 342 µM |  |  | 
25 | CCOC(=O)c1c(-c2ccccc2)oc2nc(N3CCCC3)ccc12 | > 74.4 µM | > 298 µM |  |  | 
26 | CCOC(=O)c1c(C(C)C)oc2nccc(N3CCOCC3)c12 | > 78.5 µM |  | 215 µM |  | 
27 | CCOC(=O)c1c(C(C)C)oc2nc(N3CCOCC3)ccc12 | > 78.5 µM |  |  |  | 
28 | COc1c(N2C[C@@H]3CCCN[C@@H]3C2)c(F)cc2c(=O)c(C(=O)O)cn(C3CC3)c12 [MOXIFLOXACIN] | < 0.2 µM |  |  |  | 
29 | CCCSc1ccc2c(C(=O)OCC)c(C(C)C)oc2n1 | > 81.3 µM |  |  |  | 
30 | CCOC(=O)c1c(-c2ccccc2)oc2ncc(N3CCCC3)cc12 | > 74.4 µM | > 298 µM |  |  | 
31 | NCC[C@H](O)C(=O)N[C@@H]1C[C@H](N)[C@@H](O[C@H]2O[C@H](CN)[C@@H](O)[C@H](O)[C@H]2O)[C@H](O)[C@H]1O[C@H]1O[C@H](CO)[C@@H](O)[C@H](N)[C@H]1O [AMIKACIN] | 0.4 µM (≈ 0.234 µg/mL) |  |  |  | 
32 | CCOC(=O)c1c(C(C)C)oc2nccc(N3CCN(c4ccccc4)CC3)c12 | > 63.6 µM |  | 235 µM |  | 
